Key:
[1] = tested on: Phaedon cochleariae; experiment: Phaedon cochleariae spray test (PHAECO); format: in vivo; details: application rate of 500 g/ha, after 7 days; for pest or weed control at 500 g/ha: Phaedon cochleariae, 168 h, read-out: efficacy
Description: Phaedon cochleariae—Spray Test (PHAECO)
• Solvent: 78.0 parts by weight of acetone • 1.5 parts by weight of dimethylformamide • Emulsifier: 0.5 part by weight of alkylaryl polyglycol ether
To produce an appropriate active ingredient formulation, 1 part by weight of active ingredient is mixed with the specified amounts of solvent and emulsifier, and the concentrate is diluted to the desired concentration with emulsifier-containing water.
Discs of Chinese cabbage leaves (Brassica pekinensis) are sprayed with an active ingredient formulation of the desired concentration and, after drying, populated with larvae of the mustard beetle (Phaedon cochleariae).
After 7 days, the efficacy in % is determined 100% means that all beetle larvae have been killed; 0% means that none of the beetle larvae have been killed.

[2] = tested on: Tetranychus urticae; experiment: Tetranychus urticae spray test, OP-resistant (TETRUR); format: in vivo; details: application rate of 500 g/ha, after 6 days; for pest or weed control at 500 g/ha: Tetranychus urticae, 144 h, read-out: efficacy
Summary of the method: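 Mortality as % efficacy (0% = no mites killed) read 6 days after spraying. Formulation: active ingredient in acetone/dimethylformamide plus emulsifier, diluted with emulsifier-containing water, applied to Phaseolus vulgaris leaf discs carrying every life stage of OP-resistant spider mites.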

[3] = log P by HPLC (OECD Guideline 117), method [a] acidic range; format: physicochemical; details: for logP[a]: HPLC, method [a] acidic range; for chromatographic logP: reversed-phase C18 HPLC column, acidic range
Description: (§1) The log P values were determined analogously to OECD Guideline 117 (EC Directive 92/69/EEC) by HPLC (high-performance liquid chromatography) using reversed-phase columns (C 18), by the following methods:
[a] The LC-MS determination in the acidic range is effected at pH 2.7 with 0.1% aqueous formic acid and acetonitrile (contains 0.1% formic acid) as eluents; linear gradient from 10% acetonitrile to 95% acetonitrile.

[4] = log P by HPLC (OECD Guideline 117), method [b] neutral range; format: physicochemical; details: HPLC; for logP[b]: method [b] neutral range; for chromatographic logP: reversed-phase C18 HPLC column, neutral range, pH 7.8
Description: as §1
[b] The LC-MS determination in the neutral range is effected at pH 7.8 with 0.001 molar aqueous ammonium hydrogencarbonate solution and acetonitrile as eluents; linear gradient from 10% acetonitrile to 95% acetonitrile.

[5] = tested on: Boophilus microplus; experiment: Boophilus microplus injection test (BOOPMI Inj); format: in vivo; details: application rate of 20 μg/animal, assessed after 7 days by laying of fertile eggs
Description: Use Examples Boophilus microplus Injection Test (BOOPMI Inj) • Solvent: dimethyl sulphoxide
To prepare an appropriate active ingredient formulation, 10 mg of active ingredient are mixed with 0.5 ml of solvent and the concentrate is diluted with solvent to the desired concentration.
1 μl of the active ingredient solution is injected into the abdomen of 5 engorged adult female cattle ticks (Boophilus microplus). The animals are transferred into dishes and kept in a climate-controlled room.
The efficacy is assessed after 7 days by laying of fertile eggs. Eggs which are not visibly fertile are stored in a climate-controlled cabinet until the larvae hatch after about 42 days.
An efficacy of 100% means that none of the ticks has laid any fertile eggs; 0% means that all the eggs are fertile.

[6] = pH 2.7, HPLC method [a], read-out: logP[a]
[7] = pH 2.7, HPLC, pH 2.7, read-out: log P[a]

| Structure (SMILES) | logP[a] [3] | logP[b] [4] | chromatographic logP [3, 6] | chromatographic logP [3, 7] | chromatographic logP [4] | efficacy [1] | efficacy [2] | pest or weed control at 500 g/ha [1] | pest or weed control at 500 g/ha [2] | efficacy [5] |
| --- | --- | --- | --- | --- | --- | --- | --- | --- | --- | --- |
| C=CCn1c(OC)nn(-c2ccc(C)c([S+]([O-])CC(F)(F)F)c2)c1=O (stereo not shown) [Example 179] | 2.61 | 2.57 |  |  |  | 100% | 90% |  |  |  |
| Cc1cc(F)c(-n2ncn(-c3ccc(F)cc3)c2=O)cc1SCC(F)(F)F [Example 349] | 3.48 | 3.40 |  |  |  | 100% | 90% |  |  |  |
| CC(C)(C)COc1nn(-c2cc(SCC(F)(F)F)c(Cl)cc2F)c(=O)n1C1CC1 [Example 394] | 4.95 | 4.89 |  |  |  | 83% | 100% |  |  |  |
| Cc1cc(F)c(-n2nc(C)n(N)c2=O)cc1[S+]([O-])CC(F)(F)F (stereo not shown) [Example 209] | 1.36 | 1.34 |  |  |  | 83% | 100% |  |  |  |
| Cc1cc(F)c(-n2ncn(-c3ccc(F)cc3)c2=O)cc1[S+]([O-])CC(F)(F)F (racemic) [Example 355] | 2.45 | 2.41 |  |  |  | 83% | 90% |  |  |  |
| Cc1cc(F)c(-n2nc(C)n(C)c2=O)cc1[S+]([O-])CC(F)(F)F (stereo not shown) [Example 11, 2-{2-Fluoro-4-methyl-5-[(2,2,2-trifluoroethyl)sulphinyl]phenyl}-4,5-dimethyl-2,4-dihydro-3H-1,2,4-triazol-3-one] |  |  | 1.57 | 1.57 | 1.5 |  |  | 100% | 100% |  |
| COc1nn(-c2cc([S+]([O-])CC(F)(F)F)c(C)cc2F)c(=O)n1C (stereo not shown) [Example 94] | 1.77 | 1.77 |  |  |  | 83% |  |  |  |  |
| Cc1cc(F)c(-n2nnn(C)c2=O)cc1SCC(F)(F)F [Example 302, 1-{2-Fluoro-4-methyl-5-[(2,2,2-trifluoroethyl)sulphanyl]phenyl}-4-methyl-1,4-dihydro-5H-tetrazol-5-one] |  |  | 2.89 | 2.89 | 2.86 |  |  |  | 100% | 100% |
| CCn1c([S+](C)[O-])nn(-c2cc([S+]([O-])CC(F)(F)F)c(C)cc2F)c1=O (stereo not shown) [Example 241] | 1.65 | 1.61 |  |  |  |  | 100% |  |  | 100% |
| Cc1cc(F)c(-n2nc(S(C)(=O)=O)n(C3CC3)c2=O)cc1[S+]([O-])CC(F)(F)F (stereo not shown) [Example 228] | 2.12 | 2.08 |  |  |  |  | 90% |  |  | 100% |
| Cc1cc(F)c(-n2nc(OC(C)(C)C)n(C)c2=O)cc1SCC(F)(F)F [Example 157] | 3.98 | 3.88 |  |  |  |  | 100% |  |  | 100% |
| COc1nn(-c2ccc(C(F)(F)F)c(SCC(F)(F)F)c2)c(=O)n1C [Example 95, 5-Methoxy-4-methyl-2-{3-[(2,2,2-trifluoroethyl)sulphanyl]-4-(trifluoromethyl)phenyl}-2,4-dihydro-3H-1,2,4-triazol-3-one] |  |  | 3.74 | 3.74 | 3.64 |  |  | 83% |  |  |
| Cc1cc(F)c(-n2nnn(C)c2=O)cc1[S+]([O-])CC(F)(F)F (stereo not shown) [Example 301, 1-{2-Fluoro-4-methyl-5-[(2,2,2-trifluoroethyl)sulphinyl]phenyl}-4-methyl-1,4-dihydro-5H-tetrazol-5-one] |  |  | 1.87 | 1.87 | 1.82 |  |  |  | 100% | 100% |

Continued, in another order:

| logP[a] [3] | logP[b] [4] | chromatographic logP [3, 6] | chromatographic logP [3, 7] | chromatographic logP [4] | Structure (SMILES) | efficacy [1] | efficacy [2] | pest or weed control at 500 g/ha [1] | pest or weed control at 500 g/ha [2] | efficacy [5] |
| --- | --- | --- | --- | --- | --- | --- | --- | --- | --- | --- |
| 2.54 | 2.48 |  |  |  | C=CCn1c(SC)nn(-c2cc([S+]([O-])CC(F)(F)F)c(C)cc2F)c1=O (stereo not shown) [Example 272] | 83% | 100% |  |  |  |
| 2.86 | 2.82 |  |  |  | COCCOC1=CC(=O)N(c2cc(SCC(F)(F)F)c(C)cc2F)C1 [Example 328] | 100% | 90% |  |  |  |
| 3.31 | 3.25 |  |  |  | COC1=CC(=O)N(c2ccc(C(F)(F)F)c(SCC(F)(F)F)c2)C1 [Example 322] | 100% |  |  |  |  |
|  |  | 1.59 | 1.59 | 0.37 | Cc1cc(F)c(-n2nn[nH]c2=O)cc1[S+]([O-])CC(F)(F)F (stereo not shown) [Example 303, 1-{2-Fluoro-4-methyl-5-[(2,2,2-trifluoroethyl)sulphinyl]phenyl}-1,4-dihydro-5H-tetrazol-5-one] |  |  | 100% |  |  |
| 2.78 | 2.73 |  |  |  | COc1nn(-c2cc(SCC(F)(F)F)c(C)cc2F)c(=O)n1C [Example 93] | 100% | 90% |  |  |  |
| 4.55 | 4.45 |  |  |  | Cc1ccc(-n2nc(OC(C)(C)C)n(C)c2=O)cc1SCC(F)(F)F [Example 154] | 83% | 100% |  |  |  |
|  |  | 3.51 | 3.51 | 3.49 | Cc1cc(F)c(-n2nnn(C)c2=S)cc1SCC(F)(F)F [Example 447, 1-{2-Fluoro-4-methyl-5-[(2,2,2-trifluoroethyl)sulphanyl]phenyl}-4-methyl-1,4-dihydro-5H-tetrazole-5-thione] |  |  | 100% | 100% |  |
| 3.07 | 3.04 |  |  |  | Cc1cc(F)c(-n2nc(Cl)n(C)c2=O)cc1SCC(F)(F)F [Example 435] | 83% | 100% |  |  |  |
| 3.29 | 3.21 |  |  |  | CCOC1=CC(=O)N(c2cc(SCC(F)(F)F)c(C)cc2F)C1 [Example 330] | 100% | 90% |  |  |  |
| 2.34 | 2.30 |  |  |  | COc1ccc(-n2nc(OC)n(C3CC3)c2=O)cc1[S+]([O-])CC(F)(F)F (stereo not shown) [Example 109] | 100% |  |  |  |  |
|  |  | 2.68 | 2.68 | 2.62 | Cc1cc(F)c(-n2nc(Br)n(C(C)C)c2=O)cc1[S+]([O-])CC(F)(F)F (stereo not shown) [Example 442, 5-Bromo-2-{2-fluoro-4-methyl-5-[(2,2,2-trifluoroethyl)sulphinyl]phenyl}-4-isopropyl-2,4-dihydro-3H-1,2,4-triazol-3-one] |  |  |  | 100% | 100% |
| 2.88 | 2.94 |  |  |  | Cc1cc(C)c([S+]([O-])CC(F)(F)F)cc1-n1nc(OCC(F)(F)F)n(C2CC2)c1=O (racemic) [Example 381] |  | 90% |  |  | 100% |
| 2.19 | 2.17 |  |  |  | Cc1cc(F)c(-n2nc(C(F)(F)F)n(N)c2=O)cc1[S+]([O-])CC(F)(F)F (stereo not shown) [Example 215] |  | 100% |  |  | 100% |
| 2.39 | 2.33 |  |  |  | CCn1c(SC)nn(-c2cc([S+]([O-])CC(F)(F)F)c(C)cc2F)c1=O (stereo not shown) [Example 270] |  | 100% |  |  | 100% |
| 2.84 | 2.81 |  |  |  | CCn1c([S+]([O-])CC)nn(-c2cc(SCC(F)(F)F)c(C)cc2F)c1=O (stereo not shown) [Example 253] |  | 100% |  |  | 100% |
|  |  | 3.83 | 3.83 | 3.8 | Cc1cc(F)c(-n2nc(Br)n(C(C)C)c2=O)cc1SCC(F)(F)F [Example 439, 5-Bromo-2-{2-fluoro-4-methyl-5-[(2,2,2-trifluoroethyl)sulphanyl]phenyl}-4-isopropyl-2,4-dihydro-3H-1,2,4-triazol-3-one] |  |  |  | 100% | 100% |
| 3.09 | 3.08 |  |  |  | Cn1c(C(F)(F)F)nn(-c2cc(SCC(F)(F)F)c(C#N)cc2F)c1=O [Example 38] |  | 100% |  |  | 100% |
| 2.93 | 2.82 |  |  |  | Cc1cc(F)c(-n2nc(C(F)(F)F)n(C3CC3)c2=O)cc1[S+]([O-])CC(F)(F)F (stereo not shown) [Example 60] |  | 90% |  |  | 100% |
